Results published in publication PMC11345830, “Exploration of Hydrazide-Based HDAC8 PROTACs for the Treatment of Hematological Malignancies and Solid Tumors” (Journal of Medicinal Chemistry, 2024).
Read-outs that look alike come from different tables or passages of the source.

Key:
[1] = test system: Jurkat cells; assay: Cell viability MTS assay, Jurkat; type: cell-based; conditions: Homo sapiens, Jurkat; 72 h, MTS assay; read-out: IC50 antiproliferative, Jurkat
Protocol: (§1) MTS assay was used to measure the cell viability. For single treatment, Jurkat, THP-1 and HEL (8000 cells/well), HCT116 and A549 (2000 cells/well) were seeded in 96-well plates in 100 μL complete medium. After overnight incubation, 50 μL of media containing various concentrations of compounds or the vehicle were added to each well. For cotreatment, cells were seeded in 96-well plates in 50 μL complete medium. After overnight incubation, 50 μL of Z-VAD-FMK, Nec-1, Fer-1, CQ, and other indicated compounds were added to each well. One hour later, 50 μL of media containing various concentrations of compounds were added to each well. After 72 h of treatment, 20 μL of CellTiter 96 AQueous One Solution reagent (Promega, Madison, USA) was added to each well according to manufacturer’s protocol. Plates were incubated at 37 °C for 1–2 h. The absorbance was determined at a wavelength of 490 nm using a Synergy H1 plate reader (Biotek, Winooski, VT, USA).

[2] = test system: THP-1 cells; assay: Cell viability MTS assay, THP-1; type: cell-based; conditions: Homo sapiens, 72 h, read-out: IC50 antiproliferative, THP-1
Protocol: as §1

[3] = test system: HCT116 cells; assay: Cell viability MTS assay, HCT116; type: cell-based; conditions: Homo sapiens, HCT-116, 72 h, read-out: IC50 antiproliferative, HCT116
Protocol: as §1

[4] = test system: A549 cells; assay: Cell viability MTS assay, A549; type: cell-based; conditions: Homo sapiens, 72 h, read-out: IC50 antiproliferative, A549
Protocol: as §1

[5] = target: T1, HDAC6 (Homo sapiens, UniProt Q9UBN7); set-up: endogenous in cells; conditions: MDA-MB-231 cells; cited from earlier work
T1 sequence (Q9UBN7 1-1215): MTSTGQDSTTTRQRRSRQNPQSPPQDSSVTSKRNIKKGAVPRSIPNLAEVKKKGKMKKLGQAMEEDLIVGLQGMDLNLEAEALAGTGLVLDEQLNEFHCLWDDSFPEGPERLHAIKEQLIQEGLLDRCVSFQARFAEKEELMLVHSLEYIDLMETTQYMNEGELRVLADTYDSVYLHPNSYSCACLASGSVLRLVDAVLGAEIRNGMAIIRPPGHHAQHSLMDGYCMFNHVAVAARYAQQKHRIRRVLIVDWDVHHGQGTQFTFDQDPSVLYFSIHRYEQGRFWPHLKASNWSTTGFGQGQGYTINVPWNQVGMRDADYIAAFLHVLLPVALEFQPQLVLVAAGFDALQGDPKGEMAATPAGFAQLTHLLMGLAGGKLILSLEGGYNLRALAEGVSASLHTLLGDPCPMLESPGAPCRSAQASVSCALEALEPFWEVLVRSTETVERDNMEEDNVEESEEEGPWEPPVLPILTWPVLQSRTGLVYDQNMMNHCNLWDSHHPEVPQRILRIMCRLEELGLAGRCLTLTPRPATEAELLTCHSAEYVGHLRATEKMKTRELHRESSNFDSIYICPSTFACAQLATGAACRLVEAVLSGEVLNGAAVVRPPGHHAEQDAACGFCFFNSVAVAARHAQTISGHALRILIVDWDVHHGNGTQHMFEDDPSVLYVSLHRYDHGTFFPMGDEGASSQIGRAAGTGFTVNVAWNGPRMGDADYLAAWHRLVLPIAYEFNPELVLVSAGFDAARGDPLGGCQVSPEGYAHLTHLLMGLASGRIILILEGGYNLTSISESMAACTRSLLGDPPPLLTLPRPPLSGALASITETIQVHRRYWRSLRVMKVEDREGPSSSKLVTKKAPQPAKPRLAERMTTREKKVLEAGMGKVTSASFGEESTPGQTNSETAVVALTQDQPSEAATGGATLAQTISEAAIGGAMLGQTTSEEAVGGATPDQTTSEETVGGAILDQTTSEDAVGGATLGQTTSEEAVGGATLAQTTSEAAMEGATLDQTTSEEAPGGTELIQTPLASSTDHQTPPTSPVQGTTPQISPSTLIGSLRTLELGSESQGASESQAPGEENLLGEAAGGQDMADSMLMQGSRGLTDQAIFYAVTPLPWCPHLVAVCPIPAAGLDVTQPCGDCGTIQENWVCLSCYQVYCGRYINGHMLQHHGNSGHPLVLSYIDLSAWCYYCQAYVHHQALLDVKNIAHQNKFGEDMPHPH

[6] = target: T1, HDAC6; set-up: endogenous in cells; host or cells: Jurkat; conditions: Jurkat cells; cited from earlier work
[7] = test system: acetyl-SMC3 (Ac-SMC3); assay: Ac-SMC3 level in Jurkat cells, Western blot; type: cell-based; conditions: 1 μM, 6 h
[8] = target: HDAC1 (Homo sapiens, UniProt Q13547); assay: In vitro HDAC1 deacetylase inhibition assay; conditions: read-out: HDAC1 IC50; recombinant enzyme, Boc-Lys(Ac)-AMC
Sequence of HDAC1 (Q13547 whole entry): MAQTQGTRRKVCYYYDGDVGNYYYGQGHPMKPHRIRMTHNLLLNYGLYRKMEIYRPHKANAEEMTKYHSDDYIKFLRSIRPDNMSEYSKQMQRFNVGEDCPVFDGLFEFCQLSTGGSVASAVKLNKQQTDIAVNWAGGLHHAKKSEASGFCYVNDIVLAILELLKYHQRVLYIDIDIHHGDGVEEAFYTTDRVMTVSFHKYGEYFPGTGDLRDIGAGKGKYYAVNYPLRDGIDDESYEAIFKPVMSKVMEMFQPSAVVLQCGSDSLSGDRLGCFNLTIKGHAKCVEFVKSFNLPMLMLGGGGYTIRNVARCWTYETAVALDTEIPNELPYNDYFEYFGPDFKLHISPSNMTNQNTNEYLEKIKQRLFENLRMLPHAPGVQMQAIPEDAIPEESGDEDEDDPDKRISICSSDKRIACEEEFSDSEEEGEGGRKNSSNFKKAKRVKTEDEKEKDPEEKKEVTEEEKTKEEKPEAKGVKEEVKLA
Protocol: (§2) After a following incubation at 37 °C for 20 min, the fluorescence was measured on a Synergy H1 Platereader (BioTek, USA) with an excitation wavelength of 370 nm and an emission wavelength of 460 nm. Nonlinear regression was used for the determination of the IC50 of each compound.

[9] = target: HDAC2 (Homo sapiens, UniProt Q92769); assay: In vitro HDAC2 deacetylase inhibition assay; conditions: read-out: HDAC2 IC50; recombinant enzyme, Boc-Lys(Ac)-AMC
Sequence of HDAC2 (Q92769 whole entry): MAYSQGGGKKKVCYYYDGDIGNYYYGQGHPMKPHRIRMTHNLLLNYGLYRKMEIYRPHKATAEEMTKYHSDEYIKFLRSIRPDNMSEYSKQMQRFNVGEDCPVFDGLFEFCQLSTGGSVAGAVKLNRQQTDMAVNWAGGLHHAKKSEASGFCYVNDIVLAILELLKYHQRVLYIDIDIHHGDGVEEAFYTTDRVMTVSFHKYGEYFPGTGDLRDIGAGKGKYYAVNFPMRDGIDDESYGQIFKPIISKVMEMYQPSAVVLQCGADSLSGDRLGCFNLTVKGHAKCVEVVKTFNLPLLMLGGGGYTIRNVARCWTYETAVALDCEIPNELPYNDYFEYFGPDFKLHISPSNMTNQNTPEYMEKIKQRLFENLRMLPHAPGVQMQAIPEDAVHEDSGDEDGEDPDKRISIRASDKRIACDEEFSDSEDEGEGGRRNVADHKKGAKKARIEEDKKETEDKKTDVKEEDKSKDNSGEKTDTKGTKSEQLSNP
Protocol: as §2

[10] = target: HDAC3/NcoR2 (Homo sapiens, UniProt O15379); assay: In vitro HDAC3 deacetylase inhibition assay; conditions: read-out: HDAC3 IC50; recombinant enzyme, Boc-Lys(Ac)-AMC
Sequence of HDAC3/NcoR2 (O15379 whole entry): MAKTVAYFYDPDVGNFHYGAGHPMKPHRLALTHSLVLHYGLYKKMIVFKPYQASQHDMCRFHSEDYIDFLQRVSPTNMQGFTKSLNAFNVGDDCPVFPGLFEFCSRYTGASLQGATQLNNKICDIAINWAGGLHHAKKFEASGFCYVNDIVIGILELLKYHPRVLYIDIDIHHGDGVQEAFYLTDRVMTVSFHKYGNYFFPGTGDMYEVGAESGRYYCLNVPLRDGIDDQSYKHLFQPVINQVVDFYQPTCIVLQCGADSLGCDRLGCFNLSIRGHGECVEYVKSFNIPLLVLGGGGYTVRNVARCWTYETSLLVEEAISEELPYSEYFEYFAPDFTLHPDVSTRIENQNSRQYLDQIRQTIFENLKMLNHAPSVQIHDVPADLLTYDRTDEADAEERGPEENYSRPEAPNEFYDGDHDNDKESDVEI
Sequence of HDAC3/NcoR2 (Q9Y618 395-489 partner limits assumed): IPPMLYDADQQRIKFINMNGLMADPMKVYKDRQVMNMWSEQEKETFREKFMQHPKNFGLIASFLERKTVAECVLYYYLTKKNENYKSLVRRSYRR
Protocol: as §2

[11] = target: T2, HDAC8 (Homo sapiens, UniProt Q9BY41); assay: In vitro HDAC8 deacetylase inhibition assay; conditions: read-out: HDAC8 IC50; recombinant enzyme, Boc-Lys(TFA)-AMC
T2 sequence (Q9BY41 1-377): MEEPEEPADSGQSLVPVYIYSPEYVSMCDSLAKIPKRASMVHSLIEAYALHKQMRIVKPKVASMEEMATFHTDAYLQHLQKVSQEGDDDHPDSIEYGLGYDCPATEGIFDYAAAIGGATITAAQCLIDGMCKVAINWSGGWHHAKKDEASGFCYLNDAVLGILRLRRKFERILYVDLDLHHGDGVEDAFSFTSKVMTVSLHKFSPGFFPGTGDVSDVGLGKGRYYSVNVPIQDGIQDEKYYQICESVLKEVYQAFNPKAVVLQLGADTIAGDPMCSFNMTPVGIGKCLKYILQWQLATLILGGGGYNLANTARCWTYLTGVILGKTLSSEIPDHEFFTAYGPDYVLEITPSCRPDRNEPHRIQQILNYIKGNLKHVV
Protocol: as §2

[12] = target: T2, HDAC8; set-up: endogenous in cells; host or cells: A549; method as in PMID 36516047; conditions: A549 cells; cited from earlier work

IC50 [8] | IC50 [9] | IC50 [10] | IC50 [11] | SMILES | IC50 [1] | IC50 [2] | IC50 [3] | IC50 [4] | DC50 [5] | DC50 [6] | level of Ac-SMC3 at 1 μM (in words) [7] | DC50 [12]
– | – | – | – | COc1ccc(C(=O)NO)cc1OCc1ccc(C(=O)NCCCCCCCCNc2cccc3c2C(=O)N(C2CCC(=O)NC2=O)C3=O)cc1 (stereo not shown) [PROTAC 4] | 4 ± 0.8 µM | 10.8 ± 0.9 µM | 8 ± 0.5 µM | 15.2 ± 3.3 µM | 0.038 µM | 0.0785 µM | – | –
0.94 ± 0.05 µM | 8 ± 1 µM | 9.5 ± 0.7 µM | 0.6 ± 0.08 µM | CCCCCCNNC(=O)c1ccc(CNC(C)=O)cc1 [Compound 6, N-(4-(2-Hexylhydrazine-1-carbonyl)benzyl)acetamide] | > 33.3 µM | > 33.3 µM | > 33.3 µM | > 33.3 µM | – | – | neither 1 μM of pan-HDAC inhibitor SAHA nor 1 μM of HDAC8 inhibitor 6 increased the level of Ac-SMC3 | –
– | – | – | – | O=C1CCC(N2C(=O)c3cccc(NCc4cn(CCOCCOc5ccc(Cn6ccc7ccc(C(=O)NO)cc76)cc5)nn4)c3C2=O)C(=O)N1 (stereo not shown) [PROTAC 5] | – | – | – | – | – | – | – | 0.58 µM
